According to patent publication US20250197428A1, “INHIBITORS OF KIF18A AND USES THEREOF” (ACCENT THERAPEUTICS, INC., priority 2022, published 2025):

Experiments:
[1] = tested on: OVCAR-3 cells; assay: In vitro anti-proliferative activity assay in cancer cell line OVCAR-3 (CellTiter-Glo, 4- or 7-day); format: cell-based; conditions: Homo sapiens, OVCAR-3, 96 h, 4-day assay; read-out: OVCAR-3 cellular antiproliferation assay IC50
[2] = tested on: OVCAR-3 xenografts; assay: 28 day in vivo efficacy in OVCAR-3 xenografts; set-up: species or system female NOD SCID mice; conditions: day 28, 30 mg/kg once daily, oral
Method: Experiments were performed in female NOD SCID mice (GenPharmatech Co.). Animals were allowed to acclimate for 7 days before the study. The general health of the animals were evaluated by a veterinarian, and complete health checks were performed prior to the study. General procedures for animal care and housing were in accordance with the standard, Commission on Life Sciences, National Research Council, Standard Operating Procedures (SOPs) of Pharmaron, Inc. The mice were kept in laminar flow rooms at constant temperature and humidity with 3-5 mice in each cage. Animals were housed in polycarbonate cages which had dimensions of 300×180×150 mm^3 and in an environmentally monitored, well-ventilated room maintained at a temperature of 23±3° C. and a relative humidity of 40%-70%. Fluorescent lighting provided illumination approximately 12 hours per day. Animals had free access to irradiation sterilized dry granule food during the entire study period except for time periods specified by the protocol, as well as sterile drinking water in a bottle that was available ad libitum during the quarantine and study periods.
The OVCAR-3 (ATCC) tumor cell lines were maintained in vitro as a monolayer in RPMI 1640 medium supplemented with 20% heat inactivated FBS, at 37° C. in an atmosphere of 5% CO2 in air. The tumor cells were sub-cultured, not exceeding 4-5 passages, and cells growing in an exponential growth phase were harvested and counted for tumor inoculation. Each mouse was inoculated subcutaneously on the right flank with OVCAR-3 tumor cells (2×10^7) in 0.2 mL of RPMI-1640 with Matrigel (1:1) for model development.
Treatment was started when the mean tumor size reached approximately 150-200 mm^3, at which time the mice were randomized into treatment groups such that the average starting tumor size is similar for each treatment group. Animals were then treated with vehicle or indicated mg/kg (10-100) of compound at a given frequency (e.g., BID, QD, 4 days on treatment followed by 3 days off treatment) by oral gavage at a final dosing volume of 10 mL/kg.
The measurement of tumor size was conducted with a caliper and recorded twice per […] week. The tumor volume (TV) (mm^3) was estimated using the formula: TV=a×b^2/2, where “a” and “b” are long and short diameters of a tumor, respectively.
The TVs were used for calculation of the tumor growth inhibition and tumor growth delay. For the tumor growth inhibition (TGI), the value using the formula: […]
The “TVfinal” and “TVinitial” are the mean tumor volumes on the final day and initial day, respectively.
All statistical tests was conducted on GraphPad, and the level of significance was set at 5% or P<0.05. The group means and standard deviations were calculated for all measurement parameters. Two-way RM ANOVA followed by Tukeys post hoc comparisons of the means was applied among groups.
Additionally, after compound treatment, the animals were observed an additional 28 days without compound treatment.
The initial treatment period with Example 1 was 28 days, after which overall efficacy and tolerability were evaluated based on tumor volume and body weight changes observed during the treatment period (FIG. 2a and FIG. 2b).
The initial treatment period with Example 1 was 28 days, after which overall efficacy and tolerability were evaluated based on tumor volume and body weight changes observed during the treatment period (FIG. 3a and FIG. 3b).

SMILES: Cc1cc(NC(=O)c2ccc(NS(=O)(=O)CCO)cc2N2CC[C@@]3(C(F)F)C[C@H]3C2)nc(N2CCC(F)(F)CC2)n1 (single isomer, unassigned) [Example 29b]
- IC50 [1]: < 0.1 µM
- % T/C [2]: 1%
- % TGI [2]: 99%
